How the values were obtained:
[1] = Cytotoxicity against human NCI-N87 cells assessed as decrease in cell viability after 4 days by MTS assay; format: functional, cell-based; conditions: NCI-N87, 96 h
[2] = Cytotoxicity against human MDA-MB-361/DYT2 cells assessed as decrease in cell viability after 4 days by MTS assay; format: functional, cell-based; conditions: MDA-MB-361, 96 h
[3] = Cytotoxicity against MDR1 deficient human KB cells assessed as decrease in cell viability after 4 days by MTS assay; format: functional, cell-based; conditions: 96 h
[4] = Cytotoxicity against human KB 8.5 cells expressing MDR1 assessed as decrease in cell viability after 4 days by MTS assay; format: functional, cell-based; conditions: KB 8.5, 96 h
[5] = test system: KB; assay: Resistance ratio of IC50 for human KB 8.5 cells expressing MDR1 to IC50 for MDR1 deficient human KB cells; format: functional

SMILES | IC50 [1] [nM] | IC50 [2] [nM] | IC50 [3] [nM] | IC50 [4] [nM] | Ratio IC50 [5]
CC[C@H](C)[C@H](NC(=O)[C@H]1CCCCN1C)C(=O)N(C)[C@H](C[C@@H](OC(C)=O)c1nc(C(=O)N[C@H](CNS(C)(=O)=O)Cc2ccccc2)cs1)C(C)C | 0.47 | 0.27 | 0.89 | 31.7 | 36
CC[C@H](C)[C@H](NC(=O)[C@@]1(C)CCCN1C)C(=O)N(C)[C@H](C[C@@H](OC(C)=O)c1nc(C(=O)N[C@@H](Cc2ccccc2)C[C@H](C)C(=O)O)cs1)C(C)C | 0.13 | 0.07 | 0.11 | 1.02 | 9
CC[C@H](C)[C@H](NC(=O)[C@H]1CCCCN1C)C(=O)N(C)[C@H](C[C@@H](OC(C)=O)c1nc(C(=O)N[C@@H](Cc2ccccc2)C[C@H](C)C(=O)OC)cs1)C(C)C | 0.32 | 0.22 | 0.22 | 0.7 | 3
CC[C@H](C)[C@H](NC(=O)[C@@]1(C)CCCN1C)C(=O)N(C)[C@H](C[C@@H](O)c1nc(C(=O)N[C@@H](Cc2ccc(N)cc2)C[C@H](C)C(=O)O)cs1)C(C)C | > 1000 | > 1000 | 769 | > 1000 | –
CC[C@H](C)[C@H](NC(=O)[C@@]1(C)CCCN1C)C(=O)N(C)[C@H](C[C@@H](OC(C)=O)c1nc(C(=O)N[C@@H](Cc2ccccc2)[C@@H](O)C(=O)OC)cs1)C(C)C | 9.91 | 6.09 | 6.28 | 28.4 | 5
CC[C@H](C)[C@H](NC(=O)[C@@]1(C)CCCN1)C(=O)N(C)[C@H](C[C@@H](OC(C)=O)c1nc(C(=O)N[C@@H](Cc2ccccc2)C[C@H](C)C(=O)OC)cs1)C(C)C | 59 | 24 | 18.6 | 179 | 9
CC[C@H](C)[C@H](NC(=O)[C@@]1(C)CCCN1C)C(=O)N(C)[C@H](C[C@@H](OC(C)=O)c1nc(C(=O)N[C@@H](Cc2ccccc2)c2nccs2)cs1)C(C)C | 29.5 | 22 | 37.9 | 104 | 3
CC[C@H](C)[C@H](NC(=O)C(C)(C)N(C)C)C(=O)N(C)[C@H](C[C@@H](OC(C)=O)c1nc(C(=O)N[C@@H](Cc2ccccc2)C[C@H](C)C(=O)OC)cs1)C(C)C | 9.76 | 3.37 | 4.68 | 53.9 | 11
CC[C@H](C)[C@H](NC(=O)[C@H]1CCCCN1C)C(=O)N(C)[C@H](C[C@@H](OC(C)=O)c1nc(C(=O)N[C@@H](Cc2ccccc2)C[C@H](C)C(=O)O)cs1)C(C)C | 0.46 | 0.13 | 0.33 | 1.1 | 3
CC[C@H](C)[C@H](NC(=O)[C@H]1CCCN1C)C(=O)N(C)[C@H](C[C@@H](OC(C)=O)c1nc(C(=O)N[C@@H](Cc2ccccc2)C[C@H](C)C(=O)OC)cs1)C(C)C | 2.88 | 0.67 | 1.26 | 7.88 | 6
CC[C@H](C)[C@H](NC(=O)[C@@]1(C)CCCN1C)C(=O)N(C)[C@H](C[C@@H](OC(C)=O)c1nc(C(=O)N[C@@H](Cc2ccccc2)C[C@H](C)C(=O)OC)cs1)C(C)C | 0.89 | 0.45 | 1.04 | 5.52 | 5
CC[C@H](C)[C@H](NC(=O)[C@@]1(C)CCCN1C)C(=O)N(C)[C@H](C[C@@H](OC(C)=O)c1nc(C(=O)N[C@H](CNS(C)(=O)=O)Cc2ccccc2)cs1)C(C)C | 9.24 | 4.9 | 5.32 | 93.7 | 18
CC[C@H](C)[C@H](NC(=O)[C@@]1(C)CCCN1C)C(=O)N(C)[C@H](C[C@@H](OC(C)=O)c1nc(C(=O)N[C@@H](Cc2ccc(N)cc2)C[C@H](C)C(=O)O)cs1)C(C)C | 1.11 | 0.9 | 0.5 | 2.77 | 5
CCNC(=O)O[C@H](C[C@H](C(C)C)N(C)C(=O)[C@@H](NC(=O)[C@@]1(C)CCCN1C)[C@@H](C)CC)c1nc(C(=O)N[C@@H](Cc2ccc(N)cc2)C[C@H](C)C(=O)O)cs1 | 1.92 | 1.94 | 0.77 | 4.53 | 6
CC[C@H](C)[C@H](NC(=O)[C@@]1(C)CCCN1C)C(=O)N(C)[C@H](C[C@@H](OC(C)=O)c1nc(C(=O)NCCc2cscn2)cs1)C(C)C | 61.3 | 33.2 | 86.6 | 198 | 2
CC[C@H](C)[C@H](NC(=O)[C@H]1CCCCN1C)C(=O)N(C)[C@H](C[C@@H](OC(C)=O)c1nc(C(=O)N[C@@H](Cc2ccccc2)[C@@H](O)C(=O)OC)cs1)C(C)C | 1 | 0.27 | 1.21 | 13.4 | 11
CC[C@H](C)[C@H](NC(=O)[C@@]1(C)CCCN1C)C(=O)N(C)[C@H](C[C@@H](OC(C)=O)c1nc(C(=O)NCCn2nnc3ccccc32)cs1)C(C)C | 11.8 | 9.05 | 11.5 | 46.3 | 4
CC[C@H](C)[C@H](NC(=O)[C@H]1CCCCN1C)C(=O)N(C)[C@H](C[C@@H](OC(C)=O)c1nc(C(=O)N[C@@H](Cc2ccccc2)C(=O)N2CCCCC2)cs1)C(C)C | 6.75 | 6.32 | 3.71 | 20.1 | 5
CC[C@H](C)[C@H](NC(=O)[C@H]1CCCCN1C)C(=O)N(C)[C@H](C[C@@H](OC(C)=O)c1nc(C(=O)NCCn2nnc3ccccc32)cs1)C(C)C | 1.23 | 0.83 | 1.44 | 15.6 | 11
CC[C@H](C)[C@H](NC(=O)[C@H]1CCCCN1)C(=O)N(C)[C@H](C[C@@H](OC(C)=O)c1nc(C(=O)N[C@@H](Cc2ccccc2)C[C@H](C)C(=O)OC)cs1)C(C)C | 7.74 | 1.68 | 2.6 | 141 | 54
CC[C@H](C)[C@H](NC(=O)[C@H]1CCCCN1C)C(=O)N(C)[C@H](C[C@@H](OC(C)=O)c1nc(C(=O)N[C@@H](Cc2ccccc2)CN2CCOCC2)cs1)C(C)C | 0.49 | 0.31 | 1.02 | 5.47 | 5
CC[C@H](C)[C@H](NC(=O)[C@H]1CCCCN1C)C(=O)N(C)[C@H](C[C@@H](OC(C)=O)c1nc(C(=O)N[C@@H](Cc2ccccc2)c2nccs2)cs1)C(C)C | 3 | 0.95 | 3.57 | 13.5 | 4
CC[C@H](C)[C@H](NC(=O)[C@H]1CCCCN1C)C(=O)N(C)[C@H](C[C@@H](OC(C)=O)c1nc(C(=O)NCCc2cscn2)cs1)C(C)C | 9 | 6.45 | 3.69 | 17.5 | 5
CC[C@H](C)[C@H](NC(=O)[C@H](NC)C(C)C)C(=O)N(C)[C@H](C[C@@H](OC(C)=O)c1nc(C(=O)N[C@@H](Cc2ccccc2)C[C@H](C)C(=O)OC)cs1)C(C)C | 0.89 | 1.06 | 1.76 | 33.6 | 19
CC[C@H](C)[C@H](NC(=O)[C@@H]1C[C@@H](O)CN1C)C(=O)N(C)[C@H](C[C@@H](OC(C)=O)c1nc(C(=O)N[C@@H](Cc2ccccc2)C[C@H](C)C(=O)OC)cs1)C(C)C | 106 | 26.9 | 22.6 | 788 | 35
CC[C@H](C)[C@H](NC(=O)[C@@]1(C)CCCN1C)C(=O)N(C)[C@H](C[C@@H](OC(C)=O)c1nc(C(=O)NC(CO)Cc2ccccc2)cs1)C(C)C (mixture of isomers) | 29.1 | 16.5 | 18 | 69.2 | 4
CC[C@H](C)[C@H](NC(=O)[C@@]1(C)CCCN1C)C(=O)N(C)[C@H](C[C@@H](OC(C)=O)c1nc(C(=O)N[C@@H](Cc2ccccc2)C(O)c2nccs2)cs1)C(C)C (mixture of isomers) | 11.1 | 6.39 | 8.64 | 39.4 | 5
